Measured values reported in the supplement of paper PMC11061612.

How the values were obtained:
Test in all cases: Bliss excess, mean over the matrix (fraction); higher = more synergy
[1] = tested on: COR-L95 (Small Cell Lung Carcinoma)
Summary of the method: (§1)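 Cell lines in DMEM/F12 or RPMI with 10% FBS were plated in 1536-well plates, held 24 hours at 37°C, 5% CO2, then given two-drug dose matrices for 72 hours (DMSO typically 0.2%). Viability was read by CellTiter-Glo 2.0 luminescence and scaled as inhibition from 0 (vehicle wells) to 1 (blank wells). Combination Emax is the second-highest inhibition in the matrix; Bliss excess is observed combination effect minus expected EA + EB − EA·EB, EA and EB being single-agent effects.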

[2] = tested on: COR-L23 (Non-Small Cell Lung Carcinoma)
Summary of the method: as §1

[3] = tested on: SW780 (Bladder Carcinoma)
Summary of the method: as §1

[4] = tested on: MDA-MB-231 (Breast Carcinoma)
Summary of the method: as §1

[5] = tested on: HT-29 (Colorectal Carcinoma)
Summary of the method: as §1

[6] = tested on: KM-H2 (Hodgkin's Lymphoma)
Summary of the method: as §1

[7] = tested on: SW756 (Cervical Carcinoma)
Summary of the method: as §1

[8] = tested on: MFH-ino (Other Solid Carcinomas)
Summary of the method: as §1

[9] = tested on: KARPAS-1106P (B-Cell Non-Hodgkin's Lymphoma)
Summary of the method: as §1

[10] = tested on: NCI-H1694 (Small Cell Lung Carcinoma)
Summary of the method: as §1

NCI-H2369 (Mesothelioma) = tested on: NCI-H2369 (Mesothelioma)
Summary of the method: as §1

[11] = tested on: DMS-273 (Small Cell Lung Carcinoma)
Summary of the method: as §1

J82 (Bladder Carcinoma) = tested on: J82 (Bladder Carcinoma)
Summary of the method: as §1

[12] = tested on: TE-5 (Esophageal Squamous Cell Carcinoma)
Summary of the method: as §1

[13] = tested on: SW1088 (Low Grade Glioma)
Summary of the method: as §1

NCI-H2595 (Mesothelioma) = tested on: NCI-H2595 (Mesothelioma)
Summary of the method: as §1

[14] = tested on: G-292-Clone-A141B1 (Osteosarcoma)
Summary of the method: as §1

RH-1 (Ewing's Sarcoma) = tested on: RH-1 (Ewing's Sarcoma)
Summary of the method: as §1

[15] = tested on: SW1990 (Pancreatic Carcinoma)
Summary of the method: as §1

[16] = tested on: CFPAC-1 (Pancreatic Carcinoma)
Summary of the method: as §1

Row | SMILES | Bliss excess [1] | Bliss excess [2] | Bliss excess [3] | Bliss excess [4] | Bliss excess [5] | Bliss excess [6] | Bliss excess [7] | Bliss excess [8] | Bliss excess [9] | Bliss excess [10] | Bliss excess (NCI-H2369 (Mesothelioma)) | Bliss excess [11] | Bliss excess (J82 (Bladder Carcinoma)) | Bliss excess [12] | Bliss excess [13] | Bliss excess (NCI-H2595 (Mesothelioma)) | Bliss excess [14] | Bliss excess (RH-1 (Ewing's Sarcoma)) | Bliss excess [15] | Bliss excess [16]
1 | CC1(C)CCC(CN2CCN(c3ccc(C(=O)NS(=O)(=O)c4ccc(NCC5CCOCC5)c([N+](=O)[O-])c4)c(Oc4cnc5[nH]ccc5c4)c3)CC2)=C(c2ccc(Cl)cc2)C1 [Venetoclax] + COc1cc(Nc2ncc3c(n2)-c2ccc(Cl)cc2C(c2c(F)cccc2OC)=NC3)ccc1C(=O)O [Alisertib] (first compound max 1 µM, 7x7, partner max 10 µM) | 0.134 | -0.0201 | -0.0455 | 0.0102 | 0.0016 | 0.145 | -0.0426 | -0.0729 | 0.103 | 0.256 | -0.0739 | 0.0086 | -0.0336 | -0.105 | 0.0049 | -0.0543 | -0.0793 | -0.0065 | -0.074 | -0.0475
2 | C[C@@H]1COCCN1c1cc(C2([S@](C)(=N)=O)CC2)nc(-c2ccnc3[nH]ccc23)n1 [AZD6738] + O=C(c1cc(Cc2n[nH]c(=O)c3ccccc23)ccc1F)N1CCN(C(=O)C2CC2)CC1 [Olaparib] (first compound max 10 µM, 7x7, partner max 10 µM) | -0.0399 | -0.034 | -0.0047 | -0.0335 | -0.0014 | 0.024 | -0.0158 | 0.0189 | -0.0236 | 0.0089 | -0.0344 | -0.0473 | 0.031 | -0.021 | 0.0087 | -0.0073 | 0.0195 | 0.0873 | -0.0071 | -0.0069
3 | CCN(CCO)CCCOc1ccc2c(Nc3cc(CC(=O)Nc4cccc(F)c4)[nH]n3)ncnc2c1 [AZD2811] + C=CCn1c(=O)c2cnc(Nc3ccc(N4CCN(C)CC4)cc3)nc2n1-c1cccc(C(C)(C)O)n1 [AZD1775] (first compound max 1 µM, partner max 1 µM) | -0.0225 | -0.0043 | 0.0194 | 0.009 | -0.0446 | 0.0339 | -0.01 | -0.0399 | -0.0241 | 0.0223 | -0.0434 | 0.0064 | 0.0001 | -0.076 | 0.0034 | -0.0509 | -0.0368 | -0.0163 | -0.0403 | -0.0695
4 | CC1(C)CCC(CN2CCN(c3ccc(C(=O)NS(=O)(=O)c4ccc(NCC5CCOCC5)c([N+](=O)[O-])c4)c(Oc4cnc5[nH]ccc5c4)c3)CC2)=C(c2ccc(Cl)cc2)C1 [Venetoclax] + Cn1cnc2c(F)c(Nc3ccc(Br)cc3Cl)c(C(=O)NOCCO)cc21 [Selumetinib] (first compound max 1 µM, 7x7, partner max 3 µM) | -0.0265 | -0.0182 | -0.0367 | -0.0277 | -0.0261 | -0.0221 | -0.0537 | -0.0288 | -0.0009 | -0.0313 | -0.0308 | -0.0184 | -0.028 | -0.0575 | -0.0407 | -0.047 | -0.0441 | -0.0291 | -0.0656 | -0.0142
5 | CN(CCO)CC[C@H](CSc1ccccc1)Nc1ccc(S(=O)(=O)NC(=O)c2ccc(N3CCC([C@@H](O)c4ccccc4-c4ccc(Cl)cc4)CC3)cc2)cc1S(=O)(=O)C(F)(F)F [AZD4320] + C1CN(CCC1(C(=O)N[C@@H](CCO)C2=CC=C(C=C2)Cl)N)C3=NC=NC4=C3C=CN4 [Capivasertib] (first compound max 1 µM, 7x7, partner max 3 µM) | -0.0203 | -0.0254 | -0.053 | -0.0517 | -0.0331 | -0.0205 | -0.0506 | -0.0527 | -0.0259 | 0.0202 | 0.0332 | -0.0782 | -0.031 | -0.0068 | 0.0242 | -0.0458 | -0.0041 | 0.0468 | -0.049 | -0.0527
6 | Cc1c2c(nn1C)CSCc1cc(n(C)n1)CSc1cc(c3ccccc3c1)OCCCc1c(C(=O)O)n(C)c3c-2c(Cl)ccc13 [AZD5991] + CCN(CCO)CCCOc1ccc2c(Nc3cc(CC(=O)Nc4cccc(F)c4)[nH]n3)ncnc2c1 [AZD2811] (first compound max 1 µM, 7x7, partner max 1 µM) | 0.0028 | 0.0013 | 0.0188 | 0.0604 | 0.0498 | 0.0654 | 0.0141 | 0.0053 | 0.0744 | 0.0939 | -0.0156 | -0.0949 | 0.0288 | -0.0313 | -0.0485 | 0.0141 | -0.021 | -0.0457 | 0.0159 | -0.0148
7 | COc1nnc2ccc(N3CCC(c4ccc(OCCN5CCN(C)C(=O)[C@H]5C)cc4)CC3)nn12 [AZD5153] + Cn1cnc2c(F)c(Nc3ccc(Br)cc3Cl)c(C(=O)NOCCO)cc21 [Selumetinib] (first compound max 1 µM, 7x7, partner max 10 µM) | -0.0561 | -0.0516 | -0.058 | 0.0516 | -0.0281 | -0.0839 | 0.0167 | -0.0031 | 0.013 | -0.0641 | -0.048 | -0.0661 | 0.014 | 0.0184 | 0.029 | -0.0604 | -0.0388 | -0.0267 | -0.0209 | -0.0149
8 | CN(CCO)CC[C@H](CSc1ccccc1)Nc1ccc(S(=O)(=O)NC(=O)c2ccc(N3CCC([C@@H](O)c4ccccc4-c4ccc(Cl)cc4)CC3)cc2)cc1S(=O)(=O)C(F)(F)F [AZD4320] + Cc1cc2ncnn2cc1Nc1ncc2c(n1)n(C1CCOCC1)c(=O)n2C [AZD7648] (first compound max 1 µM, 7x7, partner max 10 µM) | 0.0276 | -0.0348 | -0.0578 | -0.0082 | -0.0293 | -0.0231 | -0.051 | -0.0545 | 0.0101 | 0.0357 | -0.0411 | 0.0127 | -0.0435 | -0.033 | -0.0184 | -0.0214 | -0.032 | -0.0018 | -0.0418 | -0.0345
9 | COc1cccc(OCCCN)c1-c1cc(Nc2cnc(C#N)cn2)n[nH]1 [Prexasertib] + C[C@@H]1COCCN1C2=NC(=NC(=C2)C3(CC3)[S@](=N)(=O)C)C4=C5C=CNC5=NC=C4 [AZD6738] (first compound max 1 µM, 7x7, partner max 10 µM) | 0.0074 | -0.0311 | 0.0009 | 0.0988 | -0.0361 | -0.0214 | -0.0307 | 0.0457 | -0.0714 | -0.06 | -0.0274 | -0.0374 | -0.0198 | 0.0203 | -0.0192 | -0.0279 | 0.0477 | 0.0014 | -0.0446 | -0.0284
10 | NC1(C(=O)N[C@@H](CCO)c2ccc(Cl)cc2)CCN(c2ncnc3[nH]ccc23)CC1 [Capivasertib] + CC(=O)c1c(C)c2cnc(Nc3ccc(N4CCNCC4)cn3)nc2n(C2CCCC2)c1=O [Palbociclib] (first compound max 10 µM, 7x7, partner max 10 µM) | -0.0565 | -0.0252 | -0.0119 | -0.0024 | 0.0086 | 0.0484 | -0.0499 | -0.0353 | -0.0168 | -0.0472 | 0.0133 | -0.0309 | -0.0134 | 0.0142 | 0.0361 | -0.0248 | 0.0166 | -0.0427 | -0.0404 | -0.0758
11 | CC1(C)CCC(CN2CCN(c3ccc(C(=O)NS(=O)(=O)c4ccc(NCC5CCOCC5)c([N+](=O)[O-])c4)c(Oc4cnc5[nH]ccc5c4)c3)CC2)=C(c2ccc(Cl)cc2)C1 [Venetoclax] + C1CN(CCC1(C(=O)N[C@@H](CCO)C2=CC=C(C=C2)Cl)N)C3=NC=NC4=C3C=CN4 [Capivasertib] (first compound max 1 µM, 7x7, partner max 3 µM) | 0.0145 | -0.0525 | -0.0335 | -0.0443 | -0.0325 | -0.0178 | -0.0171 | -0.0294 | -0.0409 | -0.0418 | -0.0422 | 0.0443 | -0.0827 | -0.0197 | -0.0578 | -0.0465 | -0.0701 | -0.0353 | -0.064 | -0.0274
12 | CC1(C)CCC(CN2CCN(c3ccc(C(=O)NS(=O)(=O)c4ccc(NCC5CCOCC5)c([N+](=O)[O-])c4)c(Oc4cnc5[nH]ccc5c4)c3)CC2)=C(c2ccc(Cl)cc2)C1 [Venetoclax] + C[C@@H](Nc1cc(F)cc(F)c1)c1cc(C(=O)N(C)C)cc2c(=O)cc(N3CCOCC3)oc12 [AZD8186] (first compound max 1 µM, 7x7, partner max 3 µM) | 0.095 | -0.0328 | -0.0135 | -0.0066 | -0.0255 | -0.0151 | -0.0452 | -0.053 | 0.0046 | 0.0808 | -0.0299 | 0.0274 | -0.0213 | -0.0327 | -0.0044 | -0.0111 | -0.0195 | -0.0429 | -0.0255 | 0.0034
13 | Cc1cc2ncnn2cc1Nc1ncc2c(n1)n(C1CCOCC1)c(=O)n2C [AZD7648] + C=CCn1c(=O)c2cnc(Nc3ccc(N4CCN(C)CC4)cc3)nc2n1-c1cccc(C(C)(C)O)n1 [AZD1775] (first compound max 10 µM, partner max 1 µM) | -0.0543 | -0.0588 | 0.0146 | 0.0218 | -0.0091 | -0.0201 | -0.0211 | 0.0118 | -0.0202 | -0.0234 | 0.0034 | -0.0349 | -0.008 | -0.0386 | -0.0479 | -0.0242 | -0.0124 | 0.016 | -0.0255 | 0.0525
14 | C=CCn1c(=O)c2cnc(Nc3ccc(N4CCN(C)CC4)cc3)nc2n1-c1cccc(C(C)(C)O)n1 [AZD1775] + C[C@@H]1COCCN1C2=NC(=NC(=C2)C3(CC3)[S@](=N)(=O)C)C4=C5C=CNC5=NC=C4 [AZD6738] (first compound max 1 µM, partner max 10 µM) | -0.101 | 0.0462 | -0.0092 | 0.0726 | -0.0089 | 0.0647 | -0.0278 | -0.0909 | 0.0072 | 0.0818 | -0.0395 | 0.0645 | 0.0305 | -0.0843 | -0.0902 | -0.0206 | -0.0665 | 0.0329 | -0.0352 | -0.0369
